Experimental data: patent US9394282B2, “Pyrazole carboxamides as Janus kinase inhibitors” (Merck Sharp & Dohme Corp., priority 2011, dated 2016)

Columns and labels:
JAK2 = JAK2 (Homo sapiens (Human), UniProt O60674); assay: Jak biochemical HTRF assay, JAK2; conditions: recombinant purified GST-tagged catalytic domain; HTRF format; [ATP] 8.5 μM
From the text: (§1) Jak Biochemical HTRF Assay Protocol
(§2) Subsequent reagent additions employed an Agilent Bravo.

JAK1 = JAK1 (Homo sapiens (Human), UniProt P23458); assay: Jak biochemical HTRF assay, JAK1; conditions: recombinant purified GST-tagged catalytic domain; HTRF format; [ATP] 31.8 μM
JAK1, sequence (P23458 875-1153): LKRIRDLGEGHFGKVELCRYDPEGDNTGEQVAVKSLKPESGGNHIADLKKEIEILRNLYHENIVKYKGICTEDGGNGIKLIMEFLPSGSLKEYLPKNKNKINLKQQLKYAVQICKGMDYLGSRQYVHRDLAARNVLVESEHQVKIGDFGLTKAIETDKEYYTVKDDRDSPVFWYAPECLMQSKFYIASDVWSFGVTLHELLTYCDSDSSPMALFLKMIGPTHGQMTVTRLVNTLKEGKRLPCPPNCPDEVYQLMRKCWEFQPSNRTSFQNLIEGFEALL
From the text: as §1, §2

JAK2, sequence (O60674 849-1124): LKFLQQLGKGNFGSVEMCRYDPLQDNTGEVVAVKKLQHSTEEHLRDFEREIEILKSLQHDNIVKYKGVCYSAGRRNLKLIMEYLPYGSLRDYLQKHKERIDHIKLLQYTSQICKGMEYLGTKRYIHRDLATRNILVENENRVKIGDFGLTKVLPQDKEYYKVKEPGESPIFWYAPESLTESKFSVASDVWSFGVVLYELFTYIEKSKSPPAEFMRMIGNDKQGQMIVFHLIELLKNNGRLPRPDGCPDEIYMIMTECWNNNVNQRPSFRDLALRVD

Structure (SMILES) | IC50 (JAK2) [nM] | IC50 (JAK1) [nM]
N#C[C@@H]1CN(C(=O)OCCF)CC[C@H]1n1cc(C(N)=O)c(Nc2ccc(F)cc2)n1 (racemic) [Example 5-2, 2-fluoroethyl (3R,4R and 3S,4S)-4-{4-carbamoyl-3-[(4-fluorophenyl)amino]-1H-pyrazol-1-yl}-3-cyanopiperidine-1-carboxylate] | 104 | 4
N#C[C@@H]1CN(C(=O)OCCCc2ccccc2)CC[C@H]1n1cc(C(N)=O)c(Nc2ccc(F)cc2)n1 (racemic) [Example 5-3, 3-phenylpropyl (3R,4R and 3S,4S)-4-{4-carbamoyl-3-[(4-fluorophenyl)amino]-1H-pyrazol-1-yl}-3-cyanopiperidine-1-carboxylate] | 1010 | 44
N#C[C@@H]1CN(C(=O)OC2COC2)CC[C@H]1n1cc(C(N)=O)c(Nc2ccc(F)cc2)n1 (racemic) [Example 5-5, oxetan-3-yl (3R,4R and 3S,4S)-4-{4-carbamoyl-3-[(4-fluorophenyl)amino]-1H-pyrazol-1-yl}-3-cyanopiperidine-1-carboxylate] | 185 | 12
CN1CCC(COC(=O)N2CC[C@@H](n3cc(C(N)=O)c(Nc4ccc(F)cc4)n3)[C@H](C#N)C2)CC1 (racemic) [Example 5-7, (1-methylpiperidin-4-yl)methyl (3R,4R and 3S,4S)-4-{4-carbamoyl-3-[(4-fluorophenyl)amino]-1H-pyrazol-1-yl}-3-cyanopiperidine-1-carboxylate] | 1090 | 23
N#C[C@@H]1CN(C(=O)OCC2(N)CC2)CC[C@H]1n1cc(C(N)=O)c(Nc2ccc(F)cc2)n1 (racemic) [Example 5-8, (1-aminocyclopropyl)methyl (3R,4R and 3S,4S)-4-{4-carbamoyl-3-[(4-fluorophenyl)amino]-lH-pyrazol-1-yl}-3-cyanopiperidine-1-carboxylate] | 703 | 13
N#C[C@@H]1CN(C(=O)OCCN2CCCC2)CC[C@H]1n1cc(C(N)=O)c(Nc2ccc(F)cc2)n1 (racemic) [Example 5-19, 2-pyrrolidin-1-ylethyl (3R,4R and 3S,4S)-4-{4-carbamoyl-3-[(4-fluorophenyl)amino]-1H-pyrazol-1-yl}-3-cyanopiperidine-1-carboxylate] | 1100 | 22
N#C[C@@H]1CN(C(=O)OCC(F)(F)CO)CC[C@H]1n1cc(C(N)=O)c(Nc2ccc(F)cc2)n1 (racemic) [Example 5-20, 2,2-difluoro-3-hydroxypropyl (3R,4R and 3S,4S)-4-{4-carbamoyl-3-[(4-fluorophenyl)amino]-1H-pyrazol-1-yl}-3-cyanopiperidine-1-carboxylate] | 106 | 5
CN(C)CC(C)(C)COC(=O)N1CC[C@@H](n2cc(C(N)=O)c(Nc3ccc(F)cc3)n2)[C@H](C#N)C1 (racemic) [Example 5-21, 3-(dimethylamino)-2,2-dimethylpropyl (3R,4R and 3S,4S)-4-{4-carbamoyl-3-[(4-fluorophenyl)amino]-1H-pyrazol-1-yl}-3-cyanopiperidine-1-carboxylate] | > 1500 | 88
CN1CCC(OC(=O)N2CC[C@@H](n3cc(C(N)=O)c(Nc4ccc(F)cc4)n3)[C@H](C#N)C2)CC1 (racemic) [Example 5-26, 1-methylpiperidin-4-yl (3R,4R and 3S,4S)-4-{4-carbamoyl-3-[(4-fluorophenyl)amino]-1H-pyrazol-1-yl}-3-cyanopiperidine-1-carboxylate] | > 1500 | 58
COCCOC(=O)N1CC[C@@H](n2cc(C(N)=O)c(Nc3ccc(F)cc3)n2)[C@H](C#N)C1 (racemic) [Example 5-29, 2-methoxyethyl (3R,4R and 3S,4S)-4-{4-carbamoyl-3-[(4-fluorophenyl)amino]-1H-pyrazol-1-yl}-3-cyanopiperidine-1-carboxylate] | 202 | 9
N#C[C@@H]1CN(C(=O)OC(CF)CF)CC[C@H]1n1cc(C(N)=O)c(Nc2ccc(F)cc2)n1 (racemic) [Example 5-31, 2-fluoro-1-(fluoromethyl)ethyl (3R,4R and 3S,4S)-4-{4-carbamoyl-3-[(4-fluorophenyl)amino]-1H-pyrazol-1-yl}-3-cyanopiperidine-1-carboxylate] | 133 | 6
CC(OC(=O)N1CC[C@@H](n2cc(C(N)=O)c(Nc3ccc(F)cc3)n2)[C@H](C#N)C1)C1CC1 (mixture of isomers) [Example 5-35, 1-cyclopropylethyl (3R,4R and 3S,4S)-4-{4-carbamoyl-3-[(4-fluorophenyl)amino]-1H-pyrazol-1-yl}-3-cyanopiperidine-1-carboxylate] | 468 | 19
N#C[C@@H]1CN(C(=O)OCCc2ccccc2)CC[C@H]1n1cc(C(N)=O)c(Nc2ccc(F)cc2)n1 (racemic) [Example 5-36, 2-phenylethyl (3R,4R and 3S,4S)-4-{4-carbamoyl-3-[(4-fluorophenyl)amino]-1H-pyrazol-1-yl}-3-cyanopiperidine-1-carboxylate] | 823 | 86
N#C[C@@H]1CN(C(=O)OC2Cc3ccccc3C2)CC[C@H]1n1cc(C(N)=O)c(Nc2ccc(F)cc2)n1 (racemic) [Example 5-37, 2,3-dihydro-1H-inden-2-yl (3R,4R and 3S,4S)-4-{4-carbamoyl-3-[(4-fluorophenyl)amino]-1H-pyrazol-1-yl}-3-cyanopiperidine-1-carboxylate] | > 1500 | 54
N#C[C@@H]1CN(C(=O)OC2Cc3ccccc3C2)CC[C@@H]1n1cc(C(N)=O)c(Nc2ccc(F)cc2)n1 (racemic) [Example 5-42, 2,3-dihydro-1H-inden-2-yl (3R,4S and 3S,4R)-4-{4-carbamoyl-3-[(4-fluorophenyl)amino]-1H-pyrazol-1-yl}-3-cyanopiperidine-1-carboxylate] | > 1500 | 652
CC(OC(=O)N1CC[C@H](n2cc(C(N)=O)c(Nc3ccc(F)cc3)n2)[C@H](C#N)C1)C(F)(F)F (mixture of isomers) [Example 5-43, 2,2,2-trifluoro-1-methylethyl (3R,4S and 3S,4R)-4-{4-carbamoyl-3-[(4-fluorophenyl)amino]-1H-pyrazol-1-yl}-3-cyanopiperidine-1-carboxylate] | > 1500 | 188
N#C[C@@H]1CN(C(=O)OC(CF)CF)CC[C@@H]1n1cc(C(N)=O)c(Nc2ccc(F)cc2)n1 (racemic) [Example 5-47, 2-fluoro-1-(fluoromethyl)ethyl (3R,4S and 3S,4R)-4-{4-carbamoyl-3-[(4-fluorophenyl)amino]-1H-pyrazol-1-yl}-3-cyanopiperidine-1-carboxylate] | 1340 | 121
N#C[C@@H]1CN(C(=O)OCCc2ccccc2)CC[C@@H]1n1cc(C(N)=O)c(Nc2ccc(F)cc2)n1 (racemic) [Example 5-48, 2-phenylethyl (3R,4S and 3S,4R)-4-{4-carbamoyl-3-[(4-fluorophenyl)amino]-1H-pyrazol-1-yl}-3-cyanopiperidine-1-carboxylate] | > 1500 | 403
COCCOC(=O)N1CC[C@H](n2cc(C(N)=O)c(Nc3ccc(F)cc3)n2)[C@H](C#N)C1 (racemic) [Example 5-54, 2-methoxyethyl (3R,4S and 3S,4R)-4-{4-carbamoyl-3-[(4-fluorophenyl)amino]-1H-pyrazol-1-yl}-3-cyanopiperidine-1-carboxylate] | > 1500 | 529
N#C[C@@H]1CN(C(=O)OCCCc2ccccc2)CC[C@@H]1n1cc(C(N)=O)c(Nc2ccc(F)cc2)n1 (racemic) [Example 5-55, 3-phenylpropyl (3R,4S and 3S,4R)-4-{4-carbamoyl-3-[(4-fluorophenyl)amino]-1H-pyrazol-1-yl}-3-cyanopiperidine-1-carboxylate] | > 1500 | 350
N#C[C@@H]1CN(C(=O)OC2COC2)CC[C@@H]1n1cc(C(N)=O)c(Nc2ccc(F)cc2)n1 (racemic) [Example 5-57, oxetan-3-yl (3R,4S and 3S,4R)-4-{4-carbamoyl-3-[(4-fluorophenyl)amino]-1H-pyrazol-1-yl}-3-cyanopiperidine-1-carboxylate] | 1110 | 295
N#C[C@@H]1CN(C(=O)OCCF)CC[C@@H]1n1cc(C(N)=O)c(Nc2ccc(F)cc2)n1 (racemic) [Example 5-58, 2-fluoroethyl (3R,4S and 3S,4R)-4-{4-carbamoyl-3-[(4-fluorophenyl)amino]-1H-pyrazol-1-yl}-3-cyanopiperidine-1-carboxylate] | 1120 | 102
N#C[C@@H]1CN(C(=O)OCC(F)(F)CO)CC[C@@H]1n1cc(C(N)=O)c(Nc2ccc(F)cc2)n1 (racemic) [Example 5-67, 2,2-difluoro-3-hydroxypropyl (3R,4S and 3S,4R)-4-{4-carbamoyl-3-[(4-fluorophenyl)amino]-1H-pyrazol-1-yl}-3-cyanopiperidine-1-carboxylate] | 1200 | 69
CC(OC(=O)N1CC[C@H](n2cc(C(N)=O)c(Nc3ccc(F)cc3)n2)[C@H](C#N)C1)C1CC1 (mixture of isomers) [Example 5-68, 1-cyclopropylethyl (3R,4S and 3S,4R)-4-{4-carbamoyl-3-[(4-fluorophenyl)amino]-1H-pyrazol-1-yl}-3-cyanopiperidine-1-carboxylate] | > 1500 | 434
CC(OC(=O)N1CC[C@@H](C#N)C(n2cc(C(N)=O)c(Nc3ccc(F)cc3)n2)C1)C(F)(F)F (mixture of isomers) [Example 5-70, 2,2,2-trifluoro-1-methylethyl (3S,4R and 3R,4S)-3-{4-carbamoyl-3-[(4-fluorophenyl)amino]-1H-pyrazol-1-yl}-4-cyanopiperidine-1-carboxylate] | 135 | 8
N#C[C@@H]1CCN(C(=O)OC(CF)CF)CC1n1cc(C(N)=O)c(Nc2ccc(F)cc2)n1 (mixture of isomers) [Example 5-71, 2-fluoro-1-(fluoromethyl)ethyl (3S,4R and 3R,4S)-3-{4-carbamoyl-3-[(4-fluorophenyl)amino]-1H-pyrazol-1-yl}-4-cyanopiperidine-1-carboxylate] | 44 | 4
